Measured values published in EP1515965B1, “PHENYLAMINOPYRIMIDINES AND THEIR USE AS RHO-KINASE INHIBITORS” (Bayer Schering Pharma Aktiengesellschaft, priority 2002, dated 2003).
Like-named read-outs stand apart in the source and are kept apart here.

Legend:
Rho-Kinase II (ROKα) = target: T1, Rho-Kinase II (ROKα) (Rattus norvegicus, UniProt Q62868); test: Inhibition of recombinant Rho-kinase II (ROKα), 33P-phosphate incorporation into S6 substrate peptide; format: biochemical; conditions: recombinant Rho-Kinase II (Upstate Biotechnology), S6 Phosphate-Acceptor-Peptide, 33P-ATP, 20 min at 37°C
T1 construct: purchased Upstate Biotechnology
T1 sequence (Q62868 whole entry): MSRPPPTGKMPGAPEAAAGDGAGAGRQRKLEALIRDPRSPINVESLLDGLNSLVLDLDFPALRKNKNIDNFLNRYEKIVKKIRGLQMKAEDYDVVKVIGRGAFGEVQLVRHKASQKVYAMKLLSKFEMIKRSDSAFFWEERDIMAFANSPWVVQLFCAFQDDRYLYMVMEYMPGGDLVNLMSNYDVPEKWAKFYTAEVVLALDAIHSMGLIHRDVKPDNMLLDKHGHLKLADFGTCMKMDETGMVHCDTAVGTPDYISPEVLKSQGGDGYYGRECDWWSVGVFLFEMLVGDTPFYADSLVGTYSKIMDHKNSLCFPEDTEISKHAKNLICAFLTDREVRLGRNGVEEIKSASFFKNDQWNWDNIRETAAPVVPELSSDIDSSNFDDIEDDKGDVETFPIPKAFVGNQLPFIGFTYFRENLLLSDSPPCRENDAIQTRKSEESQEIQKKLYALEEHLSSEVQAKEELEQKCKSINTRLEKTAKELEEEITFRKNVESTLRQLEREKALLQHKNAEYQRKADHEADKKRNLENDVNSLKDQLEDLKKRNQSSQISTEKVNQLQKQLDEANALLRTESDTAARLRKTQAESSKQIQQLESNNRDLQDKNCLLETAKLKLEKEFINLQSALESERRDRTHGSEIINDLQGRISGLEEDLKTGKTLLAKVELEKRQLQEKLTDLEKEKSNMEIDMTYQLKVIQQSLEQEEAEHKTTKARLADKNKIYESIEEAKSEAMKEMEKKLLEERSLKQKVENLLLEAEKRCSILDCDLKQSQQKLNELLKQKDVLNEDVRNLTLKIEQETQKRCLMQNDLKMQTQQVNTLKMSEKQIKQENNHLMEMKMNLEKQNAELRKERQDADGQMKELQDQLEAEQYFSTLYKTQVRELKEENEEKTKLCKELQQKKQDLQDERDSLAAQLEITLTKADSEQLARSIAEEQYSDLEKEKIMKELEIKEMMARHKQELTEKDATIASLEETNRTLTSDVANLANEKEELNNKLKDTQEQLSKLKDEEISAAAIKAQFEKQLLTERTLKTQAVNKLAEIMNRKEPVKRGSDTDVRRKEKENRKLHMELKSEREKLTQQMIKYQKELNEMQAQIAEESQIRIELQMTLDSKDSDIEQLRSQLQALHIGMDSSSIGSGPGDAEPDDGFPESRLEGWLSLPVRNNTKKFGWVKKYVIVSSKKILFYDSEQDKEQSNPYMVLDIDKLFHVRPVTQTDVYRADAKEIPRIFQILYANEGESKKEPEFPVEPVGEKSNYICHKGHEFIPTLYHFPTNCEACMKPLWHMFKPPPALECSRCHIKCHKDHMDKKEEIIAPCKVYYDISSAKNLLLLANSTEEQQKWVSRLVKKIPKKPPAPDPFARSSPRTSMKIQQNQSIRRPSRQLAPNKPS
Description: (§1) In einem in vitro-Assay mit rekombinanter Rho-Kinase-II wird die Hemmung des Enzyms untersucht. Die gefäßrelaxierende Wirkung wird an Phenylephrin-induzierten Kontraktionen isolierter Ringe der Kaninchen-Arteria-Saphena bestimmt. Die Eignung der erfindungsgemäßen Verbindungen zur Behandlung von kardiovaskulären Erkrankungen kann durch Untersuchung der blutdrucksenkenden Wirkung an narkotisierten Ratten gezeigt werden.
Die Aktivität der Rho-Kinase wird durch den Einbau von ^33P-Phosphat in ein Substratpeptid bestimmt. Dazu wird kommerziell erhältliche Rho-Kinase II (Upstate Biotechnology) in Gegenwart des S6 Phosphate-Acceptor-Peptides mit den Testsubstanzen oder einer Lösungsmittelkontrolle 10 min bei 37°C vorinkubiert. Anschliessend wird die Kinase-Reaktion durch Zugabe von ^33P-markiertem ATP gestartet. Nach 20 min bei 37°C wird die Reaktion durch Zugabe von H3PO4 gestoppt. Aliquots werden auf Filter pipettiert, die Filter gewaschen und anschließend mit Scintillator beschichtet. Die Radioaktivität der am Filter gebundenen ^33P-markierten Peptide wird in einem Micro-Beta-Counter gemessen. Der IC50-Wert entspricht der Konzentration einer Testsubstanz bei welcher der Rho-Kinase katalysierte Einbau von ^33P in das Peptid im Vergleich zu einer Lösungsmittelkontrolle um 50 % gehemmt ist. Die experimentellen Daten sind in der folgenden Tabelle zusammengestellt.

[1] = tested on: Kaninchen-Arteria-Saphena; test: Vasorelaxant effect in vitro: phenylephrine-induced contractions of isolated rabbit saphenous artery rings
Description: as §1
3 mm breite Ringe der isolierten Kaninchen-Arteria-Saphena werden einzeln in 5 ml-Organbäder mit 37°C warmer, carbogenbegaster Krebs-Henseleit-Lösung gebracht. Der Gefäßtonus wird isometrisch erfasst und registriert. Kontraktionen werden durch Zugabe von 3x10^-8 g/ml Phenylephrin induziert und nach 4 min wieder ausgewaschen. Nach mehreren Kontrollzyklen wird die zu untersuchende Substanz mit jedem weiteren Durchgang in steigender Dosierung vorinkubiert und die darauffolgende Kontraktion mit der Höhe der letzten Kontrollkontraktion verglichen. Es wird die Konzentration errechnet, die erforderlich ist, um die Höhe des Kontrollwertes um 50 % zu reduzieren (IC50). Die experimentellen Daten sind in der folgenden Tabelle zusammengestellt.

[2] = isolated rings of rabbit Arteria saphena, contraction induced by 3x10^-8 g/ml Phenylephrin, concentration reducing control contraction by 50 %, read-out: IC50

Compound: Nc1nc(Nc2ccc(Sc3ccncc3)c(F)c2)cc(N2C[C@H]3CCCN[C@H]3C2)n1 [Beispiel 20]
- IC50 (Rho-Kinase II (ROKα)): 11 nM
- IC50 [1]: 1700 nM

Compound: Nc1nc(Nc2cc(F)c(Sc3ccncc3)c(F)c2)cc(N2C[C@H]3CCCN[C@H]3C2)n1 [Beispiel 59]
- IC50 (Rho-Kinase II (ROKα)): 5 nM
- IC50 [1, 2]: 360 nM

Compound: Nc1nc(Nc2ccc(Sc3ccncc3)c(F)c2)cc(-c2ccc3ncccc3c2)n1 [Beispiel 1, N-[2-Amino-6-(6-chinolinyl)-4-pyrimidinyl]-N-[3-fluor-4-(4-pyridinylsulfanyl)-phenyl]amin]
- IC50 (Rho-Kinase II (ROKα)): 7 nM
- IC50 [1, 2]: 760 nM

Compound: Nc1nc(Nc2cc(F)c(Sc3ccncc3)c(Cl)c2)cc(N2C[C@H]3CCCN[C@H]3C2)n1 [Beispiel 22]
- IC50 (Rho-Kinase II (ROKα)): 6 nM
- IC50 [1, 2]: 900 nM

Compound: Nc1nc(Nc2ccc(Sc3ccncc3)c(F)c2)cc(Oc2cccc(Cl)c2)n1 [Beispiel 56]
- IC50 (Rho-Kinase II (ROKα)): 70 nM
